In US11548946B2, “Carrier-PD-L1 binding agent compositions for treating cancers” (Mayo Foundation for Medical Education and Research, priority 2016, dated 2023):

Assays:
[1] = biological target: T1, CD20 (Homo sapiens, UniProt P11836); experiment: Flow cytometry: blocking of fluorescent anti-CD20 labeling of Daudi cells; assay type: cell-based; conditions: CD20 positive Daudi lymphoma cells pretreated prior to CD20 labeling
T1 construct: CD20 positive Daudi lymphoma cells; endogenous in cells; host or cells: Daudi lymphoma cells
T1 sequence (P11836 1-297): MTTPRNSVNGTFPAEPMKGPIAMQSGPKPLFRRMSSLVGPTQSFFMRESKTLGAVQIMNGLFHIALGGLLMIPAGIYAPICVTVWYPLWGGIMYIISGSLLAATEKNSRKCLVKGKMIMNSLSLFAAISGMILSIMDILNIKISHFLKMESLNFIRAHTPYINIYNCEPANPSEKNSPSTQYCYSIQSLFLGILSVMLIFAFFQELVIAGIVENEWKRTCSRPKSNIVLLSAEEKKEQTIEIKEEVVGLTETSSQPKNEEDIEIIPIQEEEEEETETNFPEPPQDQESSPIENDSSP
From the text: FIGS. 1A-1F depicts the results of an experiment in which CD20 positive Daudi lymphoma cells were labeled with fluorescent tagged anti-human CD20 or isotype matched control in panels F and A, respectively, and analyzed by flow cytometry. In the other panels, the Daudi cells were pretreated with ABRAXANE® (ABX; FIG. 1B), ABX/rituximab nanoparticles (AR160; FIG. 1C), lyophilized and resuspended AR160 (AR160L; FIG. 1D), or Rituxan (FIG. 1E) prior to CD20 labeling.
CD20 positive Daudi lymphoma cells were labeled with fluorescent tagged anti-human CD20 or isotype matched control in panel F and A, respectively, and analyzed by flow cytometry. In the other panels, the Daudi cells were pretreated with ABX, AR160, AR160L (AR160 lyophilized and resuspended into a solution suitable for injection), or Rituxan prior to CD20 labeling.

[2] = biological target: ABX; experiment: Biolayer interferometry (BLItz) of biotinylated atezolizumab on streptavidin probes exposed to ABX; conditions: ABX at 100, 500, 1000 μg/mL in 1×PBS; read-out: Kd (binding affinity between atezolizumab and ABX)
Procedure: Biolayer interferometry (BLItz) (Forte Bioscience) was performed using streptavidin probes.
To determine whether atezolizumab and ABX are capable of interacting to form nanoparticle complexes, Biolayer interferometry (BLItz) (Forte Bioscience) was performed using streptavidin probes. 100 ug/ml of biotinylated atezolizumab in 1×PBS was bound to the streptavidin probe. After washing unbound atezolizumab from the probe, the antibody-bound probe was exposed to ABX at concentrations of 100, 500, 1000 μg/mL in 1×PBS. An antibody probe exposed to PBS was used as background and background was subtracted. BLItz software was used to calculate dissociation constants (FIG. 7).

[3] = test system: PD-L1 positive C8161 melanoma tumor cells; experiment: In vivo efficacy in athymic nude mice bearing C8161 melanoma tumors; conditions: single IV tail vein dose; atezolizumab 18 mg/kg, ABX 45 mg/kg, AA130 18 mg/kg atezolizumab and 45 mg/kg ABX
Procedure: FIGS. 11A-11D show the change in tumor volume over time in mice that were injected with 2×10^6 PD-L1 positive C8161 melanoma tumor cells, then treated by 100 ul IV tail vein injection with saline (FIG. 11A), atezolizumab alone (18 mg/kg; FIG. 11B), ABX alone (45 mg/kg; FIG. 11C) and AA130 (18 mg/kg atezolizumab and 45 mg/kg ABX; FIG. 11D) one time. Tumor growth was monitored 3 times per week. Tumor size was calculated with the equation: (length×width^2)/2.
Kaplan Meier curves were generated using Graph Pad software. The median survival for each group was 14, 13, 16, and 21.5 days for saline, atezolizumab, Abraxane and AA130, respectively. Survival differences between AA130 and all other groups were significant, with p-values of 0.0008 for saline, 0.0015 for atezolizumab, and 0.0113 for ABX.
Athymic nude mice (Harlan Sprague Dawley) were injected with 2×10^6 PD-L1 positive C8161 melanoma tumor cells. The tumors were allowed to grow until about 600 mm^3 and were treated by 100 μl IV tail vein injection with saline, atezolizumab alone (18 mg/kg), ABX alone (45 mg/kg) and AA130 (18 mg/kg atezolizumab and 45 mg/kg ABX) one time (FIGS. 11A-11D). Tumor growth was monitored 3 times/week. Tumor size was calculated with the equation: (length×width^2)/2.
Kaplan Meier curves were generated using Graph Pad software. […]

Substance	CD20 binding of fluorescent anti-CD20 antibody after pretreatment [1]	Kd [2] [nM]	median survival [3] [days]
Rituxan: rituximab, anti-CD20 antibody used as free antibody control	specifically blocked		
atezolizumab: anti-PD-L1 mAb, humanized monoclonal antibody		1.46	13
